26 compounds from PubChem BioAssay (NCI) can be followed below.

“And” between values parts separate entries of the source, which are not always exact repeats. Equal values may be shown once.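 96-well plates; 48 h exposure; 5 concentrations. Endpoints by linear interpolation between flanking doses. Not reached: highest tested concentration assigned. GI50 = concentration required for 50% inhibition of growth. TGI: total growth inhibition.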

Holding throughout (test): inhibition of tumour cell growth, NCI panel, 48 h
Experiment [1] concerns MALME-3M melanoma.
The test system of experiment [2] is OVCAR-8 ovarian.
Experiment [3] concerns SF-268 CNS.
Experiment [4] concerns U251 CNS.
The test system of experiment [5] is NCI/ADR-RES ovarian.
The test system of experiment [6] is HOP-62 NSCLC.
Experiment [7] concerns MDA-MB-435.
In experiment [8] the test system is MDA-MB-231 breast.
Experiment [9] concerns T-47D breast.

Take `COc1cc(C)c(CC/C(C)=C/Cc2cc(O)ccc2O)c(C)c1C`: the TGI in experiment [1], in [2], in experiment [3] and in experiment [4] was > 25 µM throughout.

Take `OCc1ccc2c(c1)CC1(C2)Cc2cc3c(cc2C1O)CCC3` (centres undefined): the TGI in experiment [5] was 12.3 µM; in experiment [1], 19.2 µM; in [2], 30.9 µM; in experiment [3], > 72.7 µM; in experiment [6] it was 17.7 µM; in experiment [7] it was 2.99 µM. The TGI amounted to 13.3 µM in [8], 20.6 µM in [4] and 9.44 µM in experiment [9].

For the compound `CCCCCCCCCCCCCCCCCCOc1ccccc1CC(=O)NCC[N+]1(C)CCOCC1`, the GI50 is 18.3 µM in experiment [5]; 4.48 µM in experiment [1]; 5.56 µM in experiment [2]; 2.77 µM in experiment [3]; 4.01 µM in experiment [6]; 7.85 µM in experiment [7]. In addition, the GI50 in experiment [8] is 2.76 µM; in experiment [9], 6.85 µM. The TGI in experiment [5] is 56.8 µM; in experiment [1], > 100 µM; in experiment [2], 29.9 µM; in [3], 31.2 µM; in [6] it was 26.8 µM; in experiment [7] it was 32.9 µM. Besides, the TGI in experiment [8] was 8.34 µM; in [9] it was 39.2 µM.

`CN(C)c1nc(Oc2nc(N(C)C)nc(N(C)C)n2)nc(N(C)C)n1`: the TGI in experiment [1], in experiment [2], in experiment [3] and in experiment [4] was > 100 µM each time.

As for `Cn1c2ccccc2n2c3ncccc3c(=O)c(C#N)c12`, the TGI in [5] is > 100 µM; in experiment [1], > 100 µM; in experiment [2], 23.5 µM; in experiment [3], > 100 µM; in experiment [6], 29.5 µM; in experiment [7] it was > 100 µM. For the same compound, the TGI was 57.1 µM in experiment [8], 34 µM in experiment [4] and > 100 µM in experiment [9].

On to `CN(C)C(=O)C(F)(F)C(c1ccc(F)cc1)C1C(=O)N(C)C(=O)N(C)C1=O` (centres undefined), for which the TGI in [5], in experiment [2], in experiment [3], in experiment [6], in experiment [7] and in [8] was > 100 µM in each case. The TGI in experiment [4] and in experiment [9] was > 100 µM each time.

For the compound `Cc1nc2ccccc2nc1CC(=O)C(=O)Nc1ccc(Cl)cc1Cl`, the TGI in experiment [1], in experiment [2], in [3], in experiment [6] and in [4] was > 100 µM throughout.

On to `c1ccc(-c2c(-c3ccccc3)[n+](Cc3ccc4ccccc4c3)c(-c3ccc(-c4nc5ccccc5s4)cc3)n2Cc2ccc3ccccc3c2)cc1`, for which the GI50 in [5] is 1.07 µM; in experiment [1], 0.0536 µM; in experiment [2], 0.151 µM; in experiment [7], 0.209 µM. In addition, the TGI in experiment [5] worked out at 2.61 µM; in [1], 0.204 µM; in experiment [2], 1.12 µM; in experiment [7], 0.557 µM.

In the case of `Cc1ccc(-c2cc(-c3ccco3)c(C#N)c(=S)[nH]2)cc1`, the TGI in experiment [5] was > 100 µM; in experiment [1] it was > 100 µM; in experiment [2], > 100 µM; in experiment [3] it was > 100 µM; in experiment [6], > 100 µM; in experiment [7] it was 65.1 µM. The TGI in experiment [8] was > 100 µM; in experiment [4], 62.9 µM; in experiment [9], 71.5 µM.

On to `CCc1c(O)cc(=O)oc1-c1ccc(OC)c(OC)c1`, for which the TGI in [5], in experiment [2], in experiment [3], in experiment [6], in experiment [7] and in [8] was > 100 µM in each case. The TGI in experiment [4] and in experiment [9] was > 100 µM in each case.

As for `C[C@]12CCC3[C@@H](CCC45OC4C(=O)CC[C@]35C)C1Cc1cnn(-c3ccc(F)cc3)c1N2` (some centres undefined), the TGI in [1] is > 100 µM; in experiment [2], > 100 µM; in [3], 77.8 µM; in [6], > 100 µM; in [4], 98 µM.

Take `O=[N+]([O-])c1cccc(C2=NN(c3ccccc3)C3c4cc(Br)ccc4OCC23)c1` (centres undefined): the TGI in experiment [1], in experiment [2], in experiment [3], in [6] and in experiment [4] was > 100 µM in each case.

Regarding `O=[N+]([O-])c1ccc(C[P+]2(c3ccccc3)CCCCC2)cc1`, the TGI in [1], in experiment [2], in [6] and in experiment [4] was > 100 µM in each case.

Turning to `Cc1c2ccnc(C(N)=O)c2c(C)c2c1[nH]c1ccccc12`, the TGI in experiment [5] was 34 µM; in experiment [1], 19.3 µM; in experiment [2], 19.1 µM and > 100 µM; in experiment [3] it was 44.6 µM and 27.8 µM; in experiment [6] it was 26.8 µM and 16.9 µM; in experiment [4] it was 37.7 µM and 16.5 µM. The GI50 is 5.02 µM in experiment [1]; 4.87 µM in experiment [2]; 6.19 µM in experiment [3]; 4.03 µM in experiment [6]; 4.14 µM in [4].

On to `CCCCCCCC(=O)OCC(COC(=O)C(C)(C)C)OC(=O)Cc1ccccc1` (centres undefined), for which the TGI in [1], in experiment [2], in experiment [3], in experiment [6] and in [4] was > 100 µM throughout.

For `CC1=NN(C(=O)Cc2ccccc2)C(=O)/C1=C\c1ccc(O)cc1`, the TGI in experiment [1], in [2], in experiment [3], in [6] and in [4] was > 100 µM each time.

As to `CCOC(=O)C1C(c2ccc(Cl)cc2Cl)NC(c2ccc(C)cc2)C(C(=O)OC)S1(=O)=O` (centres undefined), the TGI in experiment [1], in experiment [2], in experiment [3], in [6] and in experiment [4] was > 100 µM in each case.

Consider `CN(C)c1ccc(/C=C(\NC(=O)c2ccccc2)C(=O)NC(CC(=O)O)C(=O)O)cc1` (centres undefined), for which the TGI in experiment [5], in [2], in experiment [3], in experiment [6], in [7] and in experiment [8] was > 100 µM each time. Further, the TGI in experiment [4] and in [9] was > 100 µM throughout.

As to `Cc1c(N2CCOCC2)nc2ccc(Cl)cc2c1-c1ccccc1`, the TGI in experiment [1], in experiment [2], in experiment [3], in experiment [6] and in experiment [4] was > 100 µM each time.

For the compound `COC1OC(C)C(NC(=O)OCC(Cl)(Cl)Cl)C2OC(C)(C)OC12` (centres undefined), the TGI in experiment [5], in experiment [1], in [2], in experiment [3], in [6] and in [7] was > 100 µM throughout. The TGI in experiment [8], in [4] and in experiment [9] was > 100 µM each time.

As for `COc1cc2ccc3c4cc(OC)c(OC)cc4c[n+](C)c3c2cc1O`, the TGI was > 100 µM in experiment [1]; > 100 µM in experiment [2]; 7.23 µM in experiment [3]; > 100 µM in experiment [6]; > 87.9 µM in experiment [4].

For the compound `Cc1cc([N+](=O)[O-])c(C)c2c1[nH]c1ccc(Cl)cc12`, the TGI in experiment [1], in experiment [2], in experiment [3] and in experiment [6] was > 100 µM in each case.

For `N#Cc1c(-c2ccc([N+](=O)[O-])cc2)cc(-c2ccc(Nc3ccnc4cc(Cl)ccc34)cc2)[nH]c1=O`, the TGI in experiment [5], in experiment [1], in [2], in experiment [3], in experiment [6] and in [7] was > 100 µM in each case. The TGI in [8], in experiment [4] and in experiment [9] was > 100 µM throughout.

As to `CCCCI(O)OS(=O)(=O)c1ccc(C)cc1`, the TGI in experiment [5], in experiment [2], in experiment [3], in experiment [6], in experiment [7] and in experiment [8] was > 100 µM in each case. In addition, the TGI in [4] and in experiment [9] was > 100 µM in each case.

Take `COc1cc2nc(-c3ccc(Cl)cc3)cc(OCCCN3CCOCC3)c2cc1OC`: the GI50 in [5] was 1.15 µM; in experiment [2], 2.15 µM; in experiment [4] it was 1.92 µM; in experiment [9], 1.96 µM. The TGI in experiment [5], in [2], in experiment [4] and in [9] was > 100 µM throughout.

As to `NCCN1CCCCCc2ccccc21`, the TGI in [5], in experiment [1], in experiment [2], in experiment [3], in experiment [6] and in experiment [7] was > 10 µM in each case. The TGI in experiment [4] and in [9] was > 10 µM each time.
